Data on one compound can be found in patent publication US8158606B2, “β-L-2′-deoxynucleosides for the treatment of resistant HBV strains and combination therapies” (priority 2002, dated 2012).

What all share (test): Antiviral testing in stable HepG2 cell lines, EPA of intracellular nucleocapsids
Assay type in all cases: cell-based, hepatitis B virus

Assay [1] deals with L515M/M552I mutant HBV, cell line MI4. Conditions: Hepatitis B virus, HepG2, L515M/M552I double mutant. Here is the method: (§1) Recombinant DNA constructs corresponding to these lamivudine-resistant mutants were created by site directed mutagenesis. The test system comprised stable cell lines harboring each of the transfected mutant genomes, as well as a wild-type control HBV genome. The antiviral activity of LdT (telbivudine) and LdC, together with the control drugs lamivudine and PMEA, was determined against the mutant and wild-type HBV genomes in the respective test cell lines.
(§2) Endogenous Polymerase Assay (EPA) of cell lysate: Cells were grown in 12-well collagen plates to 100% confluency for 3-4 days and cytosolic lysates were prepared in 1 ml of 50 mM Tris-HCl pH 7.4, 150 mM NaCl, 5 mM MgCl2, 0.2% NP-40. EPAs were essentially performed as described (Seifer et al., 1998). […] The immobilized capsids were then washed, endogenous polymerase reactions were initiated in 50 ul reaction volume containing 50 mM Tris-HCl pH7.4, 75 mM NH4Cl, 1 mM EDTA, 20 mM MgCl2, 0.1 mM β-ME, 0.5% NP-40, 100 μM cold dGTP, TTP, dCTP, and 50 nM ^33P-dATP (Perkin Elmer Life Sciences Cat# NEG 612H), and incubated overnight at 37° C. Following digestion with 1 mg/ml of Proteinase K (Roche, Cat#1373196) for 1 h at 37° C., ^33P-labeled HBV DNA was liberated via phenol/chloroform extraction The nucleic acids were finally precipitated with equal volumes 5M NH4-acetate and 2.5 volumes 100% EtOH and separated on a 1% native agarose gel in Tris-borate buffer. Gels were either fixed with 7% TCA, then dried, or blotted onto positively charged nylon membrane (Pall Biodyne Plus Cat#60406) overnight at room temperature via capillary transfer in 0.4 N NaOH. Dried gels/membranes were exposed to a phosphoimager screen (Molecular Dynamics) overnight at room temperature, then scanned (Storm 860, Molecular Dynamics) and quantitated with ImageQuant (Molecular Dynamics) software.
(§3) 12-well Biocoat collagen I plates (Becton Dickinson Cat#35-4500) are seeded with cells at a density of 0.5-1×10^6 cells per well in 2 ml DMEM containing 5% FBS, 2 mM L-glutamine, 100 I.U. penicillin/100 μg/mL streptomycin, and 0.5 mg/mL G-418.
(§4) Drug dilutions are prepared freshly in 100% DMSO as 200× stocks. For each experiment, 4 aliquots of each drug dilution series are stored at −20° C. until used. Once cells reach confluency, drug treatment is initiated by adding 10 μL of drug dilution into 2 ml of fresh DMEM+5% FBS. […] The no-drug control well receives only 10 μl of DMSO. Cells are treated every other day with 2 mL of fresh drug/medium for a total of 8 days. Cell lysates are then collected on day 10 as described below:
(§5) Aspirate media and rinse cell monolayer carefully once with 1 mL of PBS.
(§6) Add 1 ml of lysis buffer (50 mM Tris-HCl pH 7.5/150 mM NaCl/5 mM MgCl2/0.2% NP-40). Store on ice for 30 min to 4 h.
(§7) Harvest lysed cells. Transfer to 1.5 ml microfuge tubes.
(§8) Clarify lysate by spinning for 5 min at RT and 14,000 rpm.
(§9) Transfer clarified lysate to fresh tubes. Snap-freeze on dry-ice and store at −80° C. until ready to continue with endogenous polymerase assays essentially as described above.
(§10) EC50's were generated from the phosphorimager data by curve fitting using Xlfit software.

Assay [2] relates to L515M/M552V mutant HBV, cell line MV5/B3. Conditions: Hepatitis B virus, HepG2, L515M/M552V, cell line MV5/B3; mean ± SD of three to four experiments; read-out: EC50. Here is the method: as §1, §2, §3, §4, §5, §6, §7, §8, §9, §10
Assay [3] concerns M552I mutant HBV, cell line I2. The following applies: Hepatitis B virus, HepG2, M552I single mutant. As to the method:
as §1, §2, §3, §4, §5, §6, §7, §8, §9, §10

Assay [4] concerns M552V mutant HBV, cell line V1/C9. Conditions: M552V single mutant. As to the method: as §1, §2, §3, §4, §5, §6, §7, §8, §9, §10

On to `Nc1ccn([C@@H]2CC(O)[C@H](CO)O2)c(=O)n1` (stereo partly drawn) [L-dC, 2′-Deoxy-β-L-cytidine], for which the concentration for a half-maximal effect (EC50) in assay [1] is greater than 1000 µM; in assay [2], roughly 780 µM; in assay [3], greater than 1000 µM. The “activity against the mutant, in words” value in assay [4] is listed as “retained almost complete activity”.
